Reference: patent US6645918B1, “N-([1,2,4]triazoloazinyl)thiophenesulfonamide compounds and their use as herbicides” (Dow AgroSciences LLC, priority 2000, dated 2003)

Key:
Format in all cases: in vivo
[1] = tested on: barnyardgrass (Echinochloa crus-galli); assay: Preemergence herbicidal activity, barnyardgrass; conditions: soil spray, visual after 3 weeks, 0 no injury, 100 complete kill or no germination
Method: (§1) The soil matrix was contained in plastic pots with a surface area of 161 square centimeters. When required to ensure good germination and healthy plants, a fungicide treatment and/or other chemical or physical treatment was applied. A weighed amount, determined by the highest rate to be tested, of each test compound was placed in a 20 mL glass vial and was dissolved in 8 mL of a 97:3 v/v (volume/volume) mixture of acetone and dimethyl sulfoxide to obtain concentrated stock solutions. […] The stock solutions obtained were diluted with a 99.9:0.1 mixture of water and Tween® 155 surfactant (ethoxylated sorbitan fatty acid ester) to obtain application solutions of known concentration. The solutions containing the highest concentration to be tested were prepared by diluting 4 mL aliquots of the stock solution with 8.5 mL of the mixture and lower concentrations were prepared by dilution of appropriate smaller portions of the stock solution. A 2.5 mL aliquot of each solution of known concentration was sprayed evenly onto the soil of each seeded pot using a Cornwall 5.0 mL glass syringe fitted with a TeeJet TN-3 hollow cone nozzle to obtain thorough coverage of the soil in each pot. Control pots were sprayed in the same manner with the aqueous mixture. A highest application rate of 4.48 kg/ha is achieved when 50 mg of test compound is employed. The treated pots and control pots were placed in a greenhouse with an approximately 15 hr photoperiod which was maintained at about 23-29° C. during the day and 22-28° C. during the night. Nutrients and water were added on a regular basis and supplemental lighting was provided with overhead metal halide 1000 Watt lamps as necessary. The water was added by top-irrigation. After 3 weeks the condition of the test plants that germinated and grew as compared with that of the untreated plants that germinated and grew was determined visually and scored on a scale of 0 to 100 percent where 0 corresponds to no injury and 100 corresponds to complete kill or no germination.

[2] = tested on: cocklebur (Xanthium strumarium); assay: Postemergence herbicidal activity, cocklebur; conditions: foliar spray, visual after 2 weeks, 0 no injury, 100 complete kill
Method: (§2) Seeds of the desired test plant species were planted in Grace-Sierra MetroMix® 306 planting mixture, which typically has a pH of 6.0 to 6.8 and an organic matter content of about 30 percent, in plastic pots with a surface area of 64 square centimeters. When required to ensure good germination and healthy plants, a fungicide treatment and/or other chemical or physical treatment was applied. The plants were grown for 7-21 days in a greenhouse with an approximately 15 hr photoperiod which was maintained at about 23-29° C. during the day and 22-28° C. during the night. Nutrients and water were added on a regular basis and supplemental lighting was provided with overhead metal halide 1000 Watt lamps as necessary. The plants were employed for testing when they reached the first or second true leaf stage. A weighed amount of each test compound, determined by the highest rate to be tested, was placed in a 20 mL glass vial and was dissolved in 4 mL of a 97:3 v/v (volume/volume) mixture of acetone and dimethyl sulfoxide to obtain concentrated stock solutions. […] The concentrated stock solutions obtained were diluted with an aqueous mixture containing acetone, water, iso-propyl alcohol, dimethyl sulfoxide, Atplus 411F crop oil concentrate, and Triton X-155 surfactant (methylenebisdiamyl phenoxy polyethoxy ethanol) in a 48.5:39:10:1.5:1.0:0.02 v/v ratio to obtain spray solutions of known concentration. The solutions containing the highest concentration to be tested were prepared by diluting 2 mL aliquots of the stock solution with 13 mL of the mixture and lower concentrations were prepared by dilution of appropriate smaller portions of the stock solution. Approximately 1.5 mL aliquots of each solution of known concentration were sprayed evenly onto each of the test plant pots using a DeVilbiss atomizer driven by compressed air pressure of 2 to 4 psi (140 to 280 kilopascals) to obtain thorough coverage of each plant. Control plants were sprayed in the same manner with the aqueous mixture. In this test an application rate of 1 ppm results in the application of approximately 1 g/ha. The treated plants and control plants were placed in a greenhouse as described above and watered by sub-irrigation to prevent wash-off of the test compounds. After 2 weeks the condition of the test plants as compared with that of the untreated plants was determined visually and scored on a scale of 0 to 100 percent where 0 corresponds to no injury and 100 corresponds to complete kill.

[3] = tested on: lambsquarters (Chenopodium album); assay: Preemergence herbicidal activity, lambsquarters; conditions: soil spray, visual after 3 weeks, 0 no injury, 100 complete kill or no germination
Method: as §1

[4] = tested on: Rox orange sorghum (Sorghum bicolor); assay: Preemergence herbicidal activity, Rox orange sorghum; conditions: soil spray, visual after 3 weeks, 0 no injury, 100 complete kill or no germination
Method: as §1

[5] = tested on: crabgrass (Digitaria sanguinalis); assay: Preemergence herbicidal activity, crabgrass; conditions: soil spray, visual after 3 weeks, 0 no injury, 100 complete kill or no germination
Method: as §1

[6] = tested on: morningglory (Ipomoea hederacea); assay: Preemergence herbicidal activity, morningglory; conditions: soil spray, visual after 3 weeks, 0 no injury, 100 complete kill or no germination
Method: as §1

[7] = tested on: morningglory (Ipomoea hederacea); assay: Postemergence herbicidal activity, morningglory; conditions: foliar spray, visual after 2 weeks, 0 no injury, 100 complete kill
Method: as §2

[8] = tested on: pigweed (Amaranthus retroflexus); assay: Postemergence herbicidal activity, pigweed; conditions: foliar spray, visual after 2 weeks, 0 no injury, 100 complete kill
Method: as §2

[9] = tested on: velvetleaf (Abutilion theophrasti); assay: Postemergence herbicidal activity, velvetleaf; conditions: foliar spray, visual after 2 weeks, 0 no injury, 100 complete kill
Method: as §2

viola (Viola tricolor) = assay: Postemergence herbicidal activity, viola; conditions: foliar spray, visual after 2 weeks, 0 no injury, 100 complete kill
Method: as §2

[10] = tested on: blackgrass (Alopecurus myosuroides); assay: Postemergence herbicidal activity, blackgrass; conditions: foliar spray, visual after 2 weeks, 0 no injury, 100 complete kill
Method: as §2

[11] = tested on: wild buckwheat (Polygonum convolvulus); assay: Postemergence herbicidal activity, wild buckwheat; conditions: foliar spray, visual after 2 weeks, 0 no injury, 100 complete kill
Method: as §2

[12] = tested on: wild poinsettia (Euphorbia heterophylla); assay: Preemergence herbicidal activity, wild poinsettia; conditions: soil spray, visual after 3 weeks, 0 no injury, 100 complete kill or no germination
Method: as §1

[13] = tested on: velvetleaf (Abutilion theophrasti); assay: Preemergence herbicidal activity, velvetleaf; conditions: soil spray, visual after 3 weeks, 0 no injury, 100 complete kill or no germination
Method: as §1

[14] = tested on: cocklebur (Xanthium strumarium); assay: Preemergence herbicidal activity, cocklebur; conditions: soil spray, visual after 3 weeks, 0 no injury, 100 complete kill or no germination
Method: as §1

[15] = tested on: blackgrass (Alopecurus myosuroides); assay: Preemergence herbicidal activity, blackgrass; conditions: soil spray, visual after 3 weeks, 0 no injury, 100 complete kill or no germination
Method: as §1

[16] = tested on: pigweed (Amaranthus retroflexus); assay: Preemergence herbicidal activity, pigweed; conditions: soil spray, visual after 3 weeks, 0 no injury, 100 complete kill or no germination
Method: as §1

[17] = tested on: lambsquarters (Chenopodium album); assay: Postemergence herbicidal activity, lambsquarters; conditions: foliar spray, visual after 2 weeks, 0 no injury, 100 complete kill
Method: as §2

[18] = tested on: giant foxtail (Setaria faberi); assay: Preemergence herbicidal activity, giant foxtail; conditions: soil spray, visual after 3 weeks, 0 no injury, 100 complete kill or no germination
Method: as §1

[19] = tested on: giant foxtail (Setaria faberi); assay: Postemergence herbicidal activity, giant foxtail; conditions: foliar spray, visual after 2 weeks, 0 no injury, 100 complete kill
Method: as §2

wild oats (Avena fatua) [20] = assay: Preemergence herbicidal activity, wild oats; conditions: soil spray, visual after 3 weeks, 0 no injury, 100 complete kill or no germination
Method: as §1

[21] = tested on: chickweed (Stellaria media); assay: Postemergence herbicidal activity, chickweed; conditions: foliar spray, visual after 2 weeks, 0 no injury, 100 complete kill
Method: as §2

[22] = tested on: Rox orange sorghum (Sorghum bicolor); assay: Postemergence herbicidal activity, Rox orange sorghum; conditions: foliar spray, visual after 2 weeks, 0 no injury, 100 complete kill
Method: as §2

wild oats (Avena fatua) [23] = assay: Postemergence herbicidal activity, wild oats; conditions: foliar spray, visual after 2 weeks, 0 no injury, 100 complete kill
Method: as §2

COc1cc(OC)n2nc(NS(=O)(=O)c3sc(Cl)cc3OC)nc2n1 [Compound 4]
ECHCG preemergence injury score 0-100 ([1]; 35 g/Ha): 0%
XANST postemergence injury score 0-100 ([2]; 15.6 ppm): 60%
CHEAL preemergence injury score 0-100 ([3]; 35 g/Ha): 80%
SORBI preemergence injury score 0-100 ([4]; 35 g/Ha): 80%
DIGSA preemergence injury score 0-100 ([5]; 35 g/Ha): 90%
IPOHE preemergence injury score 0-100 ([6]; 35 g/Ha): 50%
IPOHE postemergence injury score 0-100 ([7]; 15.6 ppm): 60%
AMARE postemergence injury score 0-100 ([8]; 15.6 ppm): 100%
ABUTH postemergence injury score 0-100 ([9]; 15.6 ppm): 70%
VIOTR postemergence injury score 0-100 (viola (Viola tricolor); 15.6 ppm): 60%
ALOMY postemergence injury score 0-100 ([10]; 15.6 ppm): 70%
POLCO postemergence injury score 0-100 ([11]; 15.6 ppm): 90%
EPHHL preemergence injury score 0-100 ([12]; 35 g/Ha): 40%
ABUTH preemergence injury score 0-100 ([13]; 35 g/Ha): 70%
XANST preemergence injury score 0-100 ([14]; 35 g/Ha): 0%
ALOMY preemergence injury score 0-100 ([15]; 35 g/Ha): 95%
AMARE preemergence injury score 0-100 ([16]; 35 g/Ha): 100%
CHEAL postemergence injury score 0-100 ([17]; 15.6 ppm): 90%
SETFA preemergence injury score 0-100 ([18]; 35 g/Ha): 90%
SETFA postemergence injury score 0-100 ([19]; 15.6 ppm): 85%
AVEFA preemergence injury score 0-100 (wild oats (Avena fatua) [20]; 35 g/Ha): 60%
STEME postemergence injury score 0-100 ([21]; 15.6 ppm): 60%
SORBI postemergence injury score 0-100 ([22]; 15.6 ppm): 70%
AVEFA postemergence injury score 0-100 (wild oats (Avena fatua) [23]; 15.6 ppm): 60%

COc1cc(OC)n2nc(NS(=O)(=O)c3c(OC)csc3C(F)(F)F)nc2n1 [Compound 25]
ECHCG preemergence injury score 0-100 ([1]; 17.5 g/Ha): 85%
XANST postemergence injury score 0-100 ([2]; 31 ppm): 90%
CHEAL preemergence injury score 0-100 ([3]; 17.5 g/Ha): 90%
SORBI preemergence injury score 0-100 ([4]; 17.5 g/Ha): 90%
DIGSA preemergence injury score 0-100 ([5]; 17.5 g/Ha): 85%
IPOHE preemergence injury score 0-100 ([6]; 17.5 g/Ha): 60%
IPOHE postemergence injury score 0-100 ([7]; 31 ppm): 70%
AMARE postemergence injury score 0-100 ([8]; 31 ppm): 90%
ABUTH postemergence injury score 0-100 ([9]; 31 ppm): 70%
VIOTR postemergence injury score 0-100 (viola (Viola tricolor); 31 ppm): 70%
ALOMY postemergence injury score 0-100 ([10]; 31 ppm): 80%
POLCO postemergence injury score 0-100 ([11]; 31 ppm): 70%
EPHHL preemergence injury score 0-100 ([12]; 17.5 g/Ha): 80%
ABUTH preemergence injury score 0-100 ([13]; 17.5 g/Ha): 80%
XANST preemergence injury score 0-100 ([14]; 17.5 g/Ha): 50%
ALOMY preemergence injury score 0-100 ([15]; 17.5 g/Ha): 95%
AMARE preemergence injury score 0-100 ([16]; 17.5 g/Ha): 95%
CHEAL postemergence injury score 0-100 ([17]; 31 ppm): 90%
SETFA preemergence injury score 0-100 ([18]; 17.5 g/Ha): 85%
SETFA postemergence injury score 0-100 ([19]; 31 ppm): 80%
AVEFA preemergence injury score 0-100 (wild oats (Avena fatua) [20]; 17.5 g/Ha): 80%
STEME postemergence injury score 0-100 ([21]; 31 ppm): 60%
SORBI postemergence injury score 0-100 ([22]; 31 ppm): 95%
AVEFA postemergence injury score 0-100 (wild oats (Avena fatua) [23]; 31 ppm): 80%

COc1csc(C(F)(F)F)c1S(=O)(=O)Nc1nc2c(OC)cnc(OC)n2n1 [Compound 10]
ECHCG preemergence injury score 0-100 ([1]; 8.8 g/Ha): 90%
XANST postemergence injury score 0-100 ([2]; 15.6 ppm): 100%
CHEAL preemergence injury score 0-100 ([3]; 8.8 g/Ha): 95%
SORBI preemergence injury score 0-100 ([4]; 8.8 g/Ha): 100%
DIGSA preemergence injury score 0-100 ([5]; 8.8 g/Ha): 70%
IPOHE preemergence injury score 0-100 ([6]; 8.8 g/Ha): 80%
IPOHE postemergence injury score 0-100 ([7]; 15.6 ppm): 80%
AMARE postemergence injury score 0-100 ([8]; 15.6 ppm): 95%
ABUTH postemergence injury score 0-100 ([9]; 15.6 ppm): 90%
VIOTR postemergence injury score 0-100 (viola (Viola tricolor); 15.6 ppm): 90%
ALOMY postemergence injury score 0-100 ([10]; 15.6 ppm): 50%
POLCO postemergence injury score 0-100 ([11]; 15.6 ppm): 70%
EPHHL preemergence injury score 0-100 ([12]; 8.8 g/Ha): 75%
ABUTH preemergence injury score 0-100 ([13]; 8.8 g/Ha): 70%
ALOMY preemergence injury score 0-100 ([15]; 8.8 g/Ha): 90%
AMARE preemergence injury score 0-100 ([16]; 8.8 g/Ha): 100%
CHEAL postemergence injury score 0-100 ([17]; 15.6 ppm): 70%
SETFA preemergence injury score 0-100 ([18]; 8.8 g/Ha): 90%
SETFA postemergence injury score 0-100 ([19]; 15.6 ppm): 90%
AVEFA preemergence injury score 0-100 (wild oats (Avena fatua) [20]; 8.8 g/Ha): 90%
STEME postemergence injury score 0-100 ([21]; 15.6 ppm): 98%
SORBI postemergence injury score 0-100 ([22]; 15.6 ppm): 80%
AVEFA postemergence injury score 0-100 (wild oats (Avena fatua) [23]; 15.6 ppm): 80%
